# Results as given in patent US8685408B2 (priority 2006, dated 2014).
# Like-named read-outs stand apart in the source and are kept apart here.
# How the values were obtained:
# EG7 tumor [1] = tested on: EG7 tumor; parameters: species or system C57BL6 mice; conditions: mouse, in vivo, sc
# EG7 tumor [2] = tested on: EG7 tumor; parameters: species or system C57BL6 mice; conditions: mouse, in vivo, sc; remark: listed apart in the source
# dendritic cells = tested on: dendritic cells; parameters: species or system mice; conditions: mouse, in vivo
# Gb3 = tested on: Gb3; parameters: species or system mice; conditions: mouse, in vivo
# [3] = tested on: anti-OVA257-264 CD8^+T cells; parameters: species or system C57BL/6 mice; conditions: mouse, in vivo
molecule,measurement,setting,value
CCCCCCCCCCCCCCCCCCCCCCCCCC(=O)N[C@@H](CC[C@H]1O[C@H](CO)[C@H](O)[C@H](O)[C@H]1O)[C@H](O)[C@H](O)CCCCCCCCCCCCCC [C-αGalCer],growth of EG7 tumor,EG7 tumor [1],will not control the growth of the tumor
"CCCCCCCCCCCCCCCCCCCCCCCCCC(=O)N[C@@H](CO[C@H]1O[C@H](CO)[C@H](O)[C@H](O)[C@H]1O)[C@H](O)[C@H](O)CCCCCCCCCCCCCC [α-GalCer, (2S,3S,4S)-1-O-(α-D-galactopyranosyloxy)-2-hexacosanoylamino-3,4-octadecanediol]",growth of EG7 tumor,EG7 tumor [2],did not control the growth of the tumor
same,costimulatory molecules (CD86) and MHC class II / activation of dendritic cells,dendritic cells,rapid increase
same,membrane expression of Gb3 on dendritic and B cells,Gb3,did not regulate
Poly (I:C),costimulatory molecules (CD86) and MHC class II / activation of dendritic cells,dendritic cells,also activated dendritic cells
"OVA (protein, UniProt P01012 2-386, looked up) Ovalbumin: GSIGAASMEFCFDVFKELKVHHANENIFYCPIAIMSALAMVYLGAKDSTRTQINKVVRFDKLPGFGDSIEAQCGTSVNVHSSLRDILNQITKPNDVYSFSLASRLYAEERYPILPEYLQCVKELYRGGLEPINFQTAADQARELINSWVESQTNGIIRNVLQPSSVDSQTAMVLVNAIVFKGLWEKAFKDEDTQAMPFRVTEQESKPVQMMYQIGLFRVASMASEKMKILELPFASGTMSMLVLLPDEVSGLEQLESIINFEKLTEWTSSNVMEERKIKVYLPRMKMEEKYNLTSVLMAMGITDVFSSSANLSGISSAESLKISQAVHAAHAEINEAGREVVGSAEAGVDAASVSEEFRADHPFLFCIKHIATNAVLFFGRCVSP",induction of anti-OVA257-264 CD8^+T cells,[3],no significant induction
